This note sets out measurements from paper PMC9221748, “Construction and Characterization of T7 Bacteriophages Harboring Apidaecin-Derived Sequences” (Current Issues in Molecular Biology, 2022).

The assay relates to E. coli Rosetta DE3 pLysS. The experiment in a line: MIC, liquid broth microdilution assay. The assay is classed as cell-based, Escherichia coli. To be noted: 25% MHBII, 7.5 × 10^6 CFU/mL, 20 ± 2 h at 37 °C, turbidity at 600 nm, at least twice in triplicates. As to the method:
Minimal inhibitory concentrations (MICs) were determined at least twice in triplicates, using a liquid broth microdilution assay in sterile 96-well plates and a total volume of 100 μL per well. Aqueous peptide solutions were serially two-fold diluted in 50 µL of 25% MHBII or LB medium (Luria/Miller). Overnight cultures were diluted in 25% MHBII or LB medium (Luria/Miller) to 1.5 × 10^7 cells per mL and an aliquot of 50 μL was added to each well. The final cell count in each well was 7.5 × 10^6 CFU/mL. The plates were incubated for 20 ± 2 h at 37 °C. The turbidity of each well was measured at 600 nm.
On the technique in general: Broth dilution looks for growth in wells or tubes with falling amounts of substance.

No end group written: not given here.

Sequence GNNRPIYIPRPRPPHPRPIRV [Api805] had an MIC of 4 µg/mL.
GNNRPVYIPRPRPPHPRL [Api801] had a minimum inhibitory concentration (MIC) of 2 µg/mL.

As usually defined, the MIC is the lowest concentration that inhibits growth of the organism.
